# Earlier results in patent US12329899B2, “Dry powder inhaler and methods of use” (Aspeya US Inc., priority 2012, dated 2025).
# Tests used:
# [1] = oral solution of 650 mg, four male subjects
# [2] = oral administration, 325 mg
# platelet = conditions: 50 mg/day, some patients; the remainder needed over 50 mg/day
# [3] = any dose above 30 mg daily
# [4] = 75 mg/day
smiles,measurement,setting,value
"CC(=O)Oc1ccccc1C(=O)O [aspirin, acetylsalicylic acid]",dose that reached the peripheral circulation intact (AUC oral vs intravenous),[1],68%
same,loss or inactivation of the oral dosage due to the first pass effect in the gut and liver,oral administration,approximately ⅔
same,fraction of the dose bioavailable due to the first pass effect,taken orally,about one to two-thirds
same,increase of major gastrointestinal and extracranial bleeds,[2],over 50%
same,platelet inhibition,platelet,satisfactory platelet inhibition
same,vascular events prevented,[3],13%
same,"gastrointestinal side-effects, bleeding episodes",[4],significant excess of bleeding episodes
same,risk of stroke or death,[4]; patients with cerebrovascular ischaemic events,significantly reduces the risk of stroke or death
